One test addresses Cysteine protease ATG4B (Homo sapiens, UniProt Q9Y4P1). Format: functional.
The next test in a line: cells. In kind it is functional.
A further test addresses Phospholipase A2 (Homo sapiens, UniProt P04054). Format: functional.
The target of test [1] is T1, Tyrosine-protein phosphatase non-receptor type 7 (Homo sapiens, UniProt P35236).
T1 sequence (P35236 whole entry): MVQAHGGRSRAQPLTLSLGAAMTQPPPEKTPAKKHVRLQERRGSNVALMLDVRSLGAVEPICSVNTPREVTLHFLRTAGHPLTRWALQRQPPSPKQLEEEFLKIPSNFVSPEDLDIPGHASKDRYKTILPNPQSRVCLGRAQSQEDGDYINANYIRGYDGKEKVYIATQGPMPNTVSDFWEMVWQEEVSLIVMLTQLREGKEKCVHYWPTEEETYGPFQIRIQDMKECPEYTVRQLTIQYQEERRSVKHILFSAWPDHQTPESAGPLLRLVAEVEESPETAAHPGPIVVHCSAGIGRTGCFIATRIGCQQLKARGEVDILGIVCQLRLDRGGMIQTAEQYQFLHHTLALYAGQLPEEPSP
Format: functional.

The target in test [2] is Glyceraldehyde-3-phosphate dehydrogenase (Homo sapiens, UniProt P04406).
Test [3] deals with T2, Dual specificity protein phosphatase 6 (Rattus norvegicus, UniProt Q64346).
T2 sequence (Q64346 whole entry): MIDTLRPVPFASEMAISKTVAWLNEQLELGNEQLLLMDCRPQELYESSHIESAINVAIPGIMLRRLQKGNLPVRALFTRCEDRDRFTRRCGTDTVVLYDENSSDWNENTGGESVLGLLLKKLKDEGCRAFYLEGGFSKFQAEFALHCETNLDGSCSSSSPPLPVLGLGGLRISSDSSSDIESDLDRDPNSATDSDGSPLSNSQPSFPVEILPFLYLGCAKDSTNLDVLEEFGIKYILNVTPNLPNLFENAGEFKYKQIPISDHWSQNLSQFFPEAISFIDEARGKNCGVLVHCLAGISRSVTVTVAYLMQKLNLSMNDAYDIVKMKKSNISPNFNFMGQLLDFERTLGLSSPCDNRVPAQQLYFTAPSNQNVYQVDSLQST

Test [4] addresses Induced myeloid leukemia cell differentiation protein Mcl-1 (Homo sapiens, UniProt Q07820). Format: functional.
The target of test [5] is T3, Dual specificity protein phosphatase 3 (Homo sapiens, UniProt P51452). The test can be described thus: SAR VHR1 Fluorescent Assay for In Vitro dose response studies. [Related pubchem assays (depositor defined):AID1654, AID1661, AID1878, AID1992, AID2004, AID2070, AID2085]. Format: functional.
The target in test [6] is T3, Dual specificity protein phosphatase 3. The test can be described thus: MOA VHR1 Fluorescent secondary assay for identification of redox-state modulating compounds. [Related pubchem assays (depositor defined):AID1654, AID1661, AID1878, AID1957].
In test [7] the target is T1, Tyrosine-protein phosphatase non-receptor type 7. The test can be described thus: redox-dependent HePTP inhibition, mechanism study, biochemical, fluorescence (AID 2068). In kind it is functional.
Test [8] concerns the target Intestinal-type alkaline phosphatase (Mus musculus, UniProt P24822). Put plainly: PubChem AID 488785. In kind it is functional.
The target in test [9] is Beta-adrenergic receptor kinase 1 (Homo sapiens, UniProt P25098). Put plainly: aptamer displacement from bead-bound GRK2 – biochemical, cherry pick 1, bead flow cytometry, dose response (AID 504500). Background: In flow cytometry, cells or beads pass a laser one at a time.
Test [10] addresses T4, Alkaline phosphatase, tissue-nonspecific isozyme (Homo sapiens, UniProt P05186).
T4 sequence (P05186 whole entry): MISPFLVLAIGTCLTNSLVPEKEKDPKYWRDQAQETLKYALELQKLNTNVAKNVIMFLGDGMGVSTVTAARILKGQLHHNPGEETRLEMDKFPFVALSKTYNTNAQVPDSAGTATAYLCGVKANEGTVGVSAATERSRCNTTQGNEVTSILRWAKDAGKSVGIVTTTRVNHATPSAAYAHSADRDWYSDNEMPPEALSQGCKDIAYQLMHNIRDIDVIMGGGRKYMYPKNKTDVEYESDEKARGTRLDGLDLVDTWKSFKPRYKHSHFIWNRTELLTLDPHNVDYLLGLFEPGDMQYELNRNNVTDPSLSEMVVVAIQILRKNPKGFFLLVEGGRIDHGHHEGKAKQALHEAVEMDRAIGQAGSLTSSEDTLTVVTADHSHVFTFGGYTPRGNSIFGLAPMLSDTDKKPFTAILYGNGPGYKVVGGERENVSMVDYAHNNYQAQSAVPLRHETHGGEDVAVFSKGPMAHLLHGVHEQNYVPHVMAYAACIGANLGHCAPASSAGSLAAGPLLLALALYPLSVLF
The test can be described thus: TNAP enzyme inhibition by screening hits, dose response, selectivity assay for mouse IAP inhibitor project, biochemical, human TNAP, uHTS hits (AID 488906). Format: functional.

Test [11] has as its target Intestinal-type alkaline phosphatase (Homo sapiens, UniProt P09923). Put plainly: inhibition of human intestinal alkaline phosphatase – biochemical, dose response (AID 488876). In kind it is functional.
In test [12] the target is T2, Dual specificity protein phosphatase 6. In kind it is functional.
The target of a further test is T5, Cytochrome P450 1A2 (Homo sapiens, UniProt P05177).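 Further: PubChem cytochrome P450 panel assay, CYP1A2 panel member.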
T5 sequence (P05177 whole entry): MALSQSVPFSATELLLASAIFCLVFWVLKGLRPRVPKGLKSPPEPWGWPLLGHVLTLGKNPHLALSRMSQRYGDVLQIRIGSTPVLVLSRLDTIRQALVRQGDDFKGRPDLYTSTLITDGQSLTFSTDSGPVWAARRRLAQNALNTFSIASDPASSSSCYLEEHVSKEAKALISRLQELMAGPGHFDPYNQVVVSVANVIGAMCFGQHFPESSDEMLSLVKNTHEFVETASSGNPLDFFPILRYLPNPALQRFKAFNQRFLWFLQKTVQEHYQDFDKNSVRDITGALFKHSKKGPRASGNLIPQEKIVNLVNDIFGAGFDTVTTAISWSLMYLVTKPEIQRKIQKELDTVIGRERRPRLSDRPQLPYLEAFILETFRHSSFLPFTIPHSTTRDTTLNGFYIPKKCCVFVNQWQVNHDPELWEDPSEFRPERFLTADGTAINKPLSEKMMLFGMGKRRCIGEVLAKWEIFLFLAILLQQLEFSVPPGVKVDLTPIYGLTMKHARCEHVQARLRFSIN

In a further test the target is Cytochrome P450 2C9 (Homo sapiens, UniProt P11712).
For another test, the target named is Phospholipase D1 (Homo sapiens, UniProt Q13393). Put plainly: PLD1 inhibitor potency in cells, dose response (AID 602151).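 Further: cellular PLD1 assay in Calu-1 cells stimulated with PMA.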 Format: functional.
Another test addresses Phospholipase D2 (Homo sapiens, UniProt O14939). The test can be described thus: PLD2 inhibitor potency in cells, dose response (AID 602147).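 Further: cellular assay in HEK293 cells overexpressing GFP-tagged PLD2.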 Format: functional.
Test [13] has as its target Photoreceptor-specific nuclear receptor (Homo sapiens, UniProt Q9Y5X4). In kind it is functional.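 Further: potency for compounds that break the NR2E3 corepressor complex and count as activators.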
The nature of test [14]: HIV-1 Env-mediated cell fusion inhibitors, dose response, CCR5-tropic Env (AID 2279). In kind it is functional.
Test [15] concerns the target Peroxisome proliferator-activated receptor gamma/Nuclear receptor corepressor 2 (Homo sapiens, UniProt P37231+Q9Y618). Format: functional.
The target of the next test is DNA topoisomerase (Yersinia pestis, UniProt A0A2S9PM60). The test can be described thus: Y. pestis Topo-I inhibitors, cleavage product readout, dose response, biochemical, cherry-pick (AID 588525).

Activity calls are given as the source filed them.

T3 sequence (P51452 whole entry): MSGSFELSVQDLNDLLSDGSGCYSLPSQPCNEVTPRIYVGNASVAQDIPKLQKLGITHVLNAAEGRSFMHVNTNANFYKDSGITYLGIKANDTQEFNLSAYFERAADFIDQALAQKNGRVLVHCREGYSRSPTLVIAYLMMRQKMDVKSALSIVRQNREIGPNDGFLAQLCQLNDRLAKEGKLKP
Glyceraldehyde-3-phosphate dehydrogenase, sequence (P04406 whole entry): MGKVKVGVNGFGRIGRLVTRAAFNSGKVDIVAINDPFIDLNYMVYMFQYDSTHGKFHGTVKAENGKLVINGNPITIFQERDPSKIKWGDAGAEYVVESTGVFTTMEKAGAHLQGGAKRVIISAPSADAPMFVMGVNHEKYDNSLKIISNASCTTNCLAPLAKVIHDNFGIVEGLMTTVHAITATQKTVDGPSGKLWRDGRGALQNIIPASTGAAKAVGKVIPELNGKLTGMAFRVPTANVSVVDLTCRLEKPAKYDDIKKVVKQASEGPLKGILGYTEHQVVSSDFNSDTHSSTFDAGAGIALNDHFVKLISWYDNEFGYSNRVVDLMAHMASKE
Intestinal-type alkaline phosphatase (Mus musculus, UniProt P24822), sequence (P24822 whole entry): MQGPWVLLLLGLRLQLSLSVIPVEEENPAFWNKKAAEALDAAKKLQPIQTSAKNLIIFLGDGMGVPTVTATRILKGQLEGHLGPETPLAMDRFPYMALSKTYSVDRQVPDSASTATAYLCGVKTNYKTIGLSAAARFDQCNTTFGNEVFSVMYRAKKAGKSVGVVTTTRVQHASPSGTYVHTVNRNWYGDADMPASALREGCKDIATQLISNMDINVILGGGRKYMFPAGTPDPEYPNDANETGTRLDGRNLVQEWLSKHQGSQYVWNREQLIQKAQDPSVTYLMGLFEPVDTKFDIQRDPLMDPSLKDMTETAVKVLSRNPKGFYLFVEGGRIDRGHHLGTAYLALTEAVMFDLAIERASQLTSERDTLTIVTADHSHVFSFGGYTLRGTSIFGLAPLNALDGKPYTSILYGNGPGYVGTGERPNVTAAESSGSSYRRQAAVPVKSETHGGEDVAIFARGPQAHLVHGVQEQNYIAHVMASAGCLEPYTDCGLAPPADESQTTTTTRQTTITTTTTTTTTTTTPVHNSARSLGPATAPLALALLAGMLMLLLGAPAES
Cytochrome P450 2C9, sequence (P11712 whole entry): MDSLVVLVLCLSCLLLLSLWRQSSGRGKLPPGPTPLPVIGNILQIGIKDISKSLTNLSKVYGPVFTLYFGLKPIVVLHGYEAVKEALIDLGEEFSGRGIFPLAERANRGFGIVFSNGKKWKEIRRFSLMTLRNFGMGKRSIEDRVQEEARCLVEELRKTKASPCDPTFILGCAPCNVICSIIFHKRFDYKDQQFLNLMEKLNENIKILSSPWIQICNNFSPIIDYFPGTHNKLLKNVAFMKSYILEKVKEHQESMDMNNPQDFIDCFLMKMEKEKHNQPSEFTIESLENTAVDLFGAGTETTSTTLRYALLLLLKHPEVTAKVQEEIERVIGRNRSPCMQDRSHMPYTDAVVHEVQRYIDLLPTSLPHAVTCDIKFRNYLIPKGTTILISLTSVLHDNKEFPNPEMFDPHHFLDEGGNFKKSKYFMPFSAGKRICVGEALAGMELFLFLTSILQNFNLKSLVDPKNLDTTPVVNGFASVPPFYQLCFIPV
Phospholipase A2, sequence (P04054 whole entry): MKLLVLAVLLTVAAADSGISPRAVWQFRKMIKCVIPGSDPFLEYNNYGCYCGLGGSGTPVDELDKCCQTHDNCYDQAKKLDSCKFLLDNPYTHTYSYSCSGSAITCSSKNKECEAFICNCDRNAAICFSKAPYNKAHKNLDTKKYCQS
DNA topoisomerase, sequence (A0A2S9PM60 whole entry): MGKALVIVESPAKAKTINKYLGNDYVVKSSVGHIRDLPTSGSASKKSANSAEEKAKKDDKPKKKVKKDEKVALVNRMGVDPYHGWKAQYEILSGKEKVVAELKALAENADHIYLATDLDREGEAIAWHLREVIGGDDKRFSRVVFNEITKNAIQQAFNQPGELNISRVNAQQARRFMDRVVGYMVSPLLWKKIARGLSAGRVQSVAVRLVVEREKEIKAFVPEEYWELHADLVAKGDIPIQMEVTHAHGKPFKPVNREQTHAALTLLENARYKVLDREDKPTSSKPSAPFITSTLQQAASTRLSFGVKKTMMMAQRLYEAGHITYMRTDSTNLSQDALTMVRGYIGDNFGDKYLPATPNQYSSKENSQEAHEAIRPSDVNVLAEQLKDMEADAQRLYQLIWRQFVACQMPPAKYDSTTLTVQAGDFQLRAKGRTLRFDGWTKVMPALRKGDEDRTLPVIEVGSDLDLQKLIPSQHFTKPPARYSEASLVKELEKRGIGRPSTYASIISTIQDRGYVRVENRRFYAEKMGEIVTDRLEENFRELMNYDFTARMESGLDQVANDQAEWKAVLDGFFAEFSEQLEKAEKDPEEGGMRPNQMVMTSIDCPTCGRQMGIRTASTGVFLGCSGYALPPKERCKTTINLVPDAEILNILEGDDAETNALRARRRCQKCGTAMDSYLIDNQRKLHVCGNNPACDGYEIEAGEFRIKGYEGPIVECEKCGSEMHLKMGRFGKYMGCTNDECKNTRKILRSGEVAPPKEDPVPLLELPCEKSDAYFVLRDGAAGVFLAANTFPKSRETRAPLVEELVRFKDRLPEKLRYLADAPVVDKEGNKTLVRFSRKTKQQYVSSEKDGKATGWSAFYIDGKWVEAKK
Phospholipase D1, sequence (Q13393 whole entry): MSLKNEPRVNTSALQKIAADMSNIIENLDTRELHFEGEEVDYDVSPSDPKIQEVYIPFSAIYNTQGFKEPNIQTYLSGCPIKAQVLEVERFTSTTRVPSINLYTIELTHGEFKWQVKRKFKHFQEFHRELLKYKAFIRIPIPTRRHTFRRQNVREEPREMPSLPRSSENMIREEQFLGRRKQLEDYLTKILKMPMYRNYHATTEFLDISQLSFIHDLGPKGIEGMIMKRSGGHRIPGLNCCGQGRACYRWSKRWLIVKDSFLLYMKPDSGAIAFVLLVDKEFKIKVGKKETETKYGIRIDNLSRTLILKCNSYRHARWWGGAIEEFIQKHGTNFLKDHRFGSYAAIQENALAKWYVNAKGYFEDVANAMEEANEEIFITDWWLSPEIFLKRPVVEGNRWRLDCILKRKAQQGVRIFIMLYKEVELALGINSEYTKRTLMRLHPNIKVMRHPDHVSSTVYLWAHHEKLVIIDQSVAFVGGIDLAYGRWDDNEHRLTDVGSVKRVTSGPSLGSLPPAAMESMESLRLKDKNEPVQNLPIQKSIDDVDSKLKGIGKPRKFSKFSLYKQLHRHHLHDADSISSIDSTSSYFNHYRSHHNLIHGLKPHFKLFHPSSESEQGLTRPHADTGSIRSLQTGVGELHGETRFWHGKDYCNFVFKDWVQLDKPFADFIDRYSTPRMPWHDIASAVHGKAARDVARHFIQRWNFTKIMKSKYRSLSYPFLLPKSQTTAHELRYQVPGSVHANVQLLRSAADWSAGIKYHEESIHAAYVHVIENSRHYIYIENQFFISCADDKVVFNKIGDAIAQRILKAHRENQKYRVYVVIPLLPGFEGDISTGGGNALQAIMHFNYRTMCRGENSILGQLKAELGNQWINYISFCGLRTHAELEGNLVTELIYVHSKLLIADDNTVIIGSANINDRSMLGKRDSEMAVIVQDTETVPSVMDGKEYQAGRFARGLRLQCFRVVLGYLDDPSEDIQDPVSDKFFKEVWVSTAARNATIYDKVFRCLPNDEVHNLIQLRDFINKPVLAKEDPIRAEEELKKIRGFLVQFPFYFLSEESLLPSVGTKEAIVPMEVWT
Phospholipase D2, sequence (O14939 whole entry): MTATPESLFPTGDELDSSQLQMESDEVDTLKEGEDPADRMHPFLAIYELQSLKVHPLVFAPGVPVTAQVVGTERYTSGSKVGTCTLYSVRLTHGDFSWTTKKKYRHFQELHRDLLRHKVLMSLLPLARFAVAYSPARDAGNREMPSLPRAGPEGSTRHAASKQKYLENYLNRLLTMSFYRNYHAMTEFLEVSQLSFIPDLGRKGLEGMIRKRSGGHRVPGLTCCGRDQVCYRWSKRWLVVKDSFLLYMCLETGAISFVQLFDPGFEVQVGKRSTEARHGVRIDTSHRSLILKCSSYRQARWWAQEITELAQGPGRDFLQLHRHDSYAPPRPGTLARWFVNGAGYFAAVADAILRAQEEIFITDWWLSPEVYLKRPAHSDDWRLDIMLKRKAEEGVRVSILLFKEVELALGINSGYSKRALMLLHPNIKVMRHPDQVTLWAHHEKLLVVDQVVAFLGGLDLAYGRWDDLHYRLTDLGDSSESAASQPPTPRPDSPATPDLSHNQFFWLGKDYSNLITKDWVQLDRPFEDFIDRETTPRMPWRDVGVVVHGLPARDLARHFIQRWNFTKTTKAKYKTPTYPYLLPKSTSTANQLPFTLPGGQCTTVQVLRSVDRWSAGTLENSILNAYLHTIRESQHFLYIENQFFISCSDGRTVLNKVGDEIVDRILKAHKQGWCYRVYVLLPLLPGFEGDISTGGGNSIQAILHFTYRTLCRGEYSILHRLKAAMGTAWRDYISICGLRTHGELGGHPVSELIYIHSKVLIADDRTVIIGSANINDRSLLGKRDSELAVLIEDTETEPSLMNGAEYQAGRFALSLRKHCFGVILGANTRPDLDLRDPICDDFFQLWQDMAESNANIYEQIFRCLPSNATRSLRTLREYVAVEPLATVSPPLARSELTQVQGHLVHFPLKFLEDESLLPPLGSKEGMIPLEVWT
Induced myeloid leukemia cell differentiation protein Mcl-1, sequence (Q07820 whole entry): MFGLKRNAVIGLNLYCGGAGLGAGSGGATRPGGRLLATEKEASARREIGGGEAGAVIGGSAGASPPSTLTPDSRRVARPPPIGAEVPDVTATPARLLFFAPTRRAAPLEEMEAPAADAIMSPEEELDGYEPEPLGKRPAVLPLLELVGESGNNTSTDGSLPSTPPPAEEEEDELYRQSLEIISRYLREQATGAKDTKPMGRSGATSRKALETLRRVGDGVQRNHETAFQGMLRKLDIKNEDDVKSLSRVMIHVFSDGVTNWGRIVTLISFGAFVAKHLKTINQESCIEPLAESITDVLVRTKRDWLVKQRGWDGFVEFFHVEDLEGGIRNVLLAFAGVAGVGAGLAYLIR

For orientation: IC50 means the concentration that gives 50% inhibition. For the compound `O=[N+]([O-])c1cc2oc3c(c2c(/C=N/Cc2ccccc2)c1O)CCCC3`, the results for the half-inhibitory concentration (IC50) on Cysteine protease ATG4B, in the test “cells” and at Phospholipase A2 were 1.28 µM (active), 20.6 µM (active) and 502 nM (active), respectively.

One may read the EC50 as the concentration giving half of the maximal effect. By AC50 is commonly meant the concentration at which the activity in the assay is half-maximal. `O=C(O)c1ccccc1-c1ccc(/C=c2\sc3nc4cc(Br)cnc4n3c2=O)o1`: the 50% inhibitory concentration (IC50) is 1.26 µM (active) in test [1]; 2.31 µM (active) in test [2]; 6.8 µM (active) in test [3]; 3.32 µM (active) in test [4]; 1.25 µM (active) in test [5]; 308 nM (active) in [6]. Moreover, the IC50 is 159 nM (active) in test [7]; 6.36 µM (active) in test [8]; 31.7 µM (active) in [10]; > 100 µM (inactive) in [11]; 4.92 µM (active) in test [12]. For the same compound, the EC50 in test [9] was 2.39 µM (active). The results for the half-maximal activity concentration (AC50) at Cytochrome P450 1A2 and on Cytochrome P450 2C9 were 17.8 µM (inconclusive) and 20 µM (inconclusive), respectively.

`C[C@@H](CN1CCC(n2c(=O)[nH]c3cc(I)ccc32)CC1)NC(=O)c1ccc(Cl)cc1`: the figures for the 50% inhibitory concentration (IC50) at Phospholipase D1 and on Phospholipase D2 were 16 nM (active) and 2.4 µM (active), respectively.

`Cc1cc(N2C(=O)C(O)=C(C(=O)c3cc4ccccc4o3)C2c2cccc(Br)c2)no1` (stereo not drawn): the results for the 50% inhibitory concentration (IC50) in test [13], in test [14] and in test [15] were > 39.8 µM (not active), > 50 µM (active) and 1.97 µM (active), respectively. For the same compound, the AC50 on DNA topoisomerase was 3.24 µM (active).

Source of the values: ChEMBL document CHEMBL1201862, “PubChem BioAssay data set” (2004).
